Our source for the IC50 and Activity values is ChEMBL document CHEMBL2074501, “Inhibition of P-glycoprotein by newer antidepressants” (J Pharmacol Exp Ther, 2003).

Molecules are shown by their SMILES.

The target in the first data set is ATP-dependent translocase ABCB1 (Homo sapiens, UniProt P08183). Put plainly: TP_TRANSPORTER: cell accumulation of calcein in L-MDR1 cells. Format: functional, cell-based.
Chain of ATP-dependent translocase ABCB1 (P08183 whole entry): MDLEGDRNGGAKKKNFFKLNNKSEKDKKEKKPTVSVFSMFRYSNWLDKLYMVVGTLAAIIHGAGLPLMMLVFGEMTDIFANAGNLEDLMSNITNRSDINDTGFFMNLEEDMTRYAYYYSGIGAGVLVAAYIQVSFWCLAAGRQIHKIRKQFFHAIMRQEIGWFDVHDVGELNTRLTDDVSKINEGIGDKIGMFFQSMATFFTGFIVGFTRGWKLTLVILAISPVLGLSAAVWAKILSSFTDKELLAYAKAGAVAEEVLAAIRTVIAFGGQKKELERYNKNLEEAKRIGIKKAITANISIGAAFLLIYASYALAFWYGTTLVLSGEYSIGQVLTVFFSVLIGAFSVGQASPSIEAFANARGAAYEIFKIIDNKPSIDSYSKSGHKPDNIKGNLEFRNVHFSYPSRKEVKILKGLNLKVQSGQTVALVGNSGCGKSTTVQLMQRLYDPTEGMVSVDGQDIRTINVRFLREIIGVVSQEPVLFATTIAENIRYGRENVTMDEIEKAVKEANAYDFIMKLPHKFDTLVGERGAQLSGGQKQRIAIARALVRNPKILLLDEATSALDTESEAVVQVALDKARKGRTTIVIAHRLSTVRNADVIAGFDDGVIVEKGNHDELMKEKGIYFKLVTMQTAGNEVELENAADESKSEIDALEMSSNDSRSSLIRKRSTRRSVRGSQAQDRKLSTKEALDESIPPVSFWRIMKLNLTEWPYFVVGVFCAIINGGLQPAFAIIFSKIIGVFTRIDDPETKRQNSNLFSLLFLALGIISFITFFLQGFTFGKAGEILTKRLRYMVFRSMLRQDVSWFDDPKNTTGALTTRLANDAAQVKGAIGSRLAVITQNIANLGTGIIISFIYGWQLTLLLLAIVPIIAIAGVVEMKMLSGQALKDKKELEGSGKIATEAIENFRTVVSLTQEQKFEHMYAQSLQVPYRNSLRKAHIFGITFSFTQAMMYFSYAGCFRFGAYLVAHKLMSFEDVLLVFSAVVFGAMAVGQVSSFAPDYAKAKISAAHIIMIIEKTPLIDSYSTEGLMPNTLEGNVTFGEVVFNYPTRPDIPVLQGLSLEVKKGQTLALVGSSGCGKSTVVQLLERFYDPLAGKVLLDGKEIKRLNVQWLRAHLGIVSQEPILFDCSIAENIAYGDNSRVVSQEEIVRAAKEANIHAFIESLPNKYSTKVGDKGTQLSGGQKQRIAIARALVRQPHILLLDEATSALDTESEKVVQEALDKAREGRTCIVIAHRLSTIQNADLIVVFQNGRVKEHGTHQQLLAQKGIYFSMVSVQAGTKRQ
Conditions: not given
Regarding `Fc1ccc([C@@H]2CCNC[C@H]2COc2ccc3c(c2)OCO3)cc1` [PAROXETINE], the IC50 was 29.8 µM. Same read-out and setting: the same measure for `CN[C@H]1CC[C@@H](c2ccc(Cl)c(Cl)c2)c2ccccc21` [SERTRALINE]: 31.8 µM.

Staying with this data set, now noted: pig, l-mdr1.
Take `COCCCC/C(=N\OCCN)c1ccc(C(F)(F)F)cc1` [FLUVOXAMINE]: the Activity entry was “inhibitor [+]”. `COc1cc(OC[C@@H]2CNCC[C@H]2c2ccc(F)cc2)ccc1O` [Paroxetine-M]: the Activity entry is “inhibitor [+]”. Still for that read-out and setting: the same measure for `COc1ccc(C(CN(C)C)C2(O)CCCCC2)cc1` (configuration not stated) [VENLAFAXINE]: “inhibitor [+]”; for `CN(C)CCCC1(c2ccc(F)cc2)OCc2cc(C#N)ccc21` (configuration not stated) [CITALOPRAM]: “inhibitor [+]”; for `CNCC(c1ccc(OC)cc1)C1(O)CCCCC1` (configuration not stated) [N-DESMETHYLVENLAFAXINE]: “inhibitor [+]”. For `N[C@H]1CC[C@@H](c2ccc(Cl)c(Cl)c2)c2ccccc21`, the Activity entry is “inhibitor [+]”. Regarding `C/C=C/C[C@@H](C)C(=O)[C@H]1C(=O)N[C@@H](C(C)C)C(=O)N(C)CC(=O)N(C)[C@@H](CC(C)C)C(=O)N[C@@H](C(C)C)C(=O)N(C)[C@@H](CC(C)C)C(=O)N[C@@H](C)C(=O)N[C@H](C)C(=O)N(C)[C@@H](CC(C)C)C(=O)N(C)[C@@H](CC(C)C)C(=O)N(C)[C@@H](C(C)C)C(=O)N1C`, the Activity result is “inhibitor [+]”. The same measure, in the same setting: the same measure for `CNCCCC1(c2ccc(F)cc2)OCc2cc(C#N)ccc21` (configuration not stated) [DESMETHYLCITALOPRAM]: “inhibitor [+]”; for `CN(C)CC(c1ccc(O)cc1)C1(O)CCCCC1` (configuration not stated) [DESVENLAFAXINE]: “is not an inhibitor [-]”.

For the molecule `NCCC(Oc1ccc(C(F)(F)F)cc1)c1ccccc1` (configuration not stated) [NORFLUOXETINE], the Activity result was “inhibitor [+]”.

The IC50 is the concentration that gives 50% inhibition.
